Source: PubChem BioAssay (NCI)
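How tested: cells in 96-well plates exposed to compound for 48 hours at five concentrations. Here, GI50 denotes the concentration required for 50% inhibition of growth. TGI denotes the concentration required for complete inhibition of growth.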

What was measured:
Assay in all cases: NCI anticancer screen, dose series, 48 h
786-0 renal = system: 786-0 renal
A549 NSCLC = system: A549 NSCLC
HT29 colon = system: HT29 colon
SNB-19 CNS = system: SNB-19 CNS
NCI-H23 lung = system: NCI-H23 lung
ACHN renal = system: ACHN renal
OVCAR-8 ovarian = system: OVCAR-8 ovarian
UACC-257 melanoma = system: UACC-257 melanoma
HCT-116 colon = system: HCT-116 colon
BT-549 breast = system: BT-549 breast

Compound	GI50 (786-0 renal)	TGI (786-0 renal)	GI50 (A549 NSCLC)	TGI (A549 NSCLC)	GI50 (HT29 colon)	TGI (HT29 colon)	GI50 (SNB-19 CNS)	TGI (SNB-19 CNS)	GI50 (NCI-H23 lung)	TGI (NCI-H23 lung)	GI50 (ACHN renal)	TGI (ACHN renal)	GI50 (OVCAR-8 ovarian)	TGI (OVCAR-8 ovarian)	GI50 (UACC-257 melanoma)	TGI (UACC-257 melanoma)	GI50 (HCT-116 colon)	TGI (HCT-116 colon)	GI50 (BT-549 breast)	TGI (BT-549 breast)
COc1cc2c3c(n(CCCNCCNCCCN)c(=O)c2cc1OC)-c1cc2c(cc1C3=O)OCO2	3.24 µM	14.5 µM	10.8 µM	> 100 µM	2.03 µM	10.2 µM	5.73 µM	31.2 µM	2.73 µM	10.9 µM	0.18 µM	2.6 µM	2.39 µM	6.45 µM	9.51 µM	30.9 µM	1.29 µM	2.56 µM	15.1 µM	35.2 µM
Cc1cc2nc3c4cccc(O)c4n(CCN(C)C)c3nc2cc1C	3.88 µM	21.1 µM	1.41 µM	12.5 µM	2.81 µM	20 µM	2.62 µM	26.3 µM	3.07 µM	16 µM	1.09 µM	3.18 µM	1.83 µM	10.3 µM	2 µM	4.58 µM	1.49 µM	7.97 µM	5.38 µM	32.8 µM
NC(=O)NCCSC1CCCCC1O (centres undefined)		> 100 µM		> 100 µM		> 100 µM		> 100 µM		> 100 µM		> 100 µM		> 100 µM		> 100 µM		> 100 µM		> 100 µM
COc1cc2c(cc1OC)-c1c(c3ccc([N+](=O)[O-])cc3c(=O)n1CCCN)C2=O	0.716 µM	1.84 µM	0.395 µM	1.68 µM	0.531 µM	1.12 µM	0.944 µM	5.9 µM	0.548 µM	1.55 µM	0.242 µM	4.04 µM	1.01 µM	4.49 µM	6.79 µM	14.6 µM	0.57 µM	1.46 µM	1.79 µM	4.49 µM
CCN1CCC(CC(=O)Nc2n[nH]c3nc(-c4cccs4)c(Br)cc23)CC1	10.7 µM	> 25 µM	8.82 µM	> 25 µM	4.47 µM	11.1 µM	17.4 µM	> 25 µM	20.1 µM	> 25 µM	7.96 µM	> 25 µM	11.6 µM	> 25 µM	5.58 µM	10.8 µM	7.81 µM	> 23.4 µM	> 23 µM	> 25 µM
CN1CCC(n2[nH]c(-c3ccccc3)c(Cc3ccccc3)c2=O)CC1		> 100 µM		> 100 µM		> 100 µM		> 100 µM		> 100 µM		> 100 µM		> 100 µM		> 100 µM		> 100 µM		> 100 µM
c1cncc(CNc2ncn[nH]2)c1		> 100 µM		> 100 µM		> 100 µM		> 100 µM		> 100 µM		> 100 µM		> 100 µM		> 100 µM		> 100 µM		> 100 µM
CN(C)S(=O)(=O)c1ccc(Nc2ccc(O)c3c2C(=O)c2c([N+](=O)[O-])ccc(O)c2C3=O)cc1		> 100 µM		> 100 µM		> 100 µM		> 100 µM		> 100 µM		> 100 µM		> 100 µM		> 100 µM		> 100 µM		> 100 µM
COC(=O)[C@]12CC=C3O[C@@H]4OC5(CCCCC5)O[C@@H]4[C@H]3C1C(=O)C=CC2=O (some centres undefined)		30.8 µM		55 µM		34.6 µM		66.2 µM		33.6 µM		32.6 µM		44.1 µM		32.5 µM		32.4 µM		34.5 µM
CCOC(=O)/C(=C\c1ccc(F)cc1)C(C)=O		49.4 µM		> 100 µM		> 100 µM		> 100 µM		46 µM		50.7 µM		94.6 µM		44.7 µM		91.8 µM		51.4 µM
O=[N+]([O-])c1cccc(-c2cc(-c3cc(Br)ccc3O)[nH]n2)c1	1.7 µM	4.08 µM	2.42 µM	6.68 µM	3.55 µM	12 µM	3.26 µM	12.3 µM	2.06 µM	6.11 µM	3.23 µM		2.89 µM	10.5 µM	2.5 µM	6.49 µM	1.46 µM	2.86 µM	1.26 µM	4.61 µM
Cc1ccc(F)cc1NC(=O)c1cc(Cl)ccc1Nc1ccccc1	52.1 µM	> 100 µM	> 100 µM	> 100 µM	> 100 µM	> 100 µM	> 100 µM	> 100 µM	> 100 µM	> 100 µM	> 100 µM	> 100 µM	58.8 µM	> 100 µM	> 100 µM	> 100 µM	> 100 µM	> 100 µM	> 100 µM	> 100 µM
COc1ccc(/C=C\c2cc(OC)c(OC)c(OC)c2)cc1OCC(=O)Nc1nc2ccc(OC(F)(F)F)cc2s1	54.3 µM	> 100 µM	6 µM	> 100 µM	> 100 µM	> 100 µM	7.08 µM	> 100 µM	4.39 µM	> 100 µM	8.31 µM	> 100 µM	5 µM	> 100 µM	89.2 µM	> 100 µM	3.92 µM	> 100 µM	10.5 µM	> 100 µM
COc1ccc(-n2c3c(c4c(CN(C)C)c(O)c(C)cc42)CCc2ccccc2C3=O)cc1	29.7 µM	> 100 µM	55.6 µM	> 100 µM	> 100 µM	> 100 µM	> 100 µM	> 100 µM	14 µM	69 µM	47 µM	> 100 µM	31.6 µM	> 100 µM	78.1 µM	> 100 µM	34.4 µM	> 100 µM	14.4 µM	> 100 µM
COc1cc(/C=C2\C(=O)Nc3ccccc32)cc(OC)c1OC	23.2 µM	> 100 µM	20.3 µM	> 100 µM	19.8 µM	> 100 µM	27.1 µM	> 100 µM	17.9 µM	68.3 µM	26.4 µM	> 100 µM	25 µM	> 100 µM	8.81 µM	54 µM	17.3 µM	> 100 µM	28.7 µM	> 100 µM
CNCCOC(=O)/C=C1/CCC2C(C(O)CC3C(C)(C(=O)OC)CCCC23C)C1C (centres undefined)	0.0166 µM	0.0341 µM	< 0.01 µM	0.0116 µM	0.0231 µM	0.0473 µM	0.0428 µM	0.152 µM	0.0153 µM	0.0355 µM	< 0.01 µM	0.0173 µM	0.018 µM	0.0331 µM	0.0226 µM	0.0512 µM	0.0158 µM	0.0311 µM	0.0242 µM	0.064 µM
COc1ccc(-n2c(C)nc3c(c(C)nn3-c3ccccc3)c2=O)cc1	0.0654 µM	> 100 µM	0.107 µM	> 100 µM	0.0467 µM	> 31.9 µM	0.064 µM	> 100 µM	0.218 µM	> 100 µM	0.0645 µM	> 100 µM	0.177 µM	> 100 µM	5.82 µM	75.1 µM	0.0443 µM	7.91 µM	0.123 µM	33.8 µM
